The source of these data is US20240116985A1, “STAPLED PEPTIDES AND METHODS THEREOF” (priority 2020, published 2024).

Assay [1] has as its target T1, beta-catenin/TCF4 engagement (Homo sapiens, UniProt P35222).
T1 construct: expressed in transfected cells; host or cells: HEK293
T1 sequence (P35222 1-781): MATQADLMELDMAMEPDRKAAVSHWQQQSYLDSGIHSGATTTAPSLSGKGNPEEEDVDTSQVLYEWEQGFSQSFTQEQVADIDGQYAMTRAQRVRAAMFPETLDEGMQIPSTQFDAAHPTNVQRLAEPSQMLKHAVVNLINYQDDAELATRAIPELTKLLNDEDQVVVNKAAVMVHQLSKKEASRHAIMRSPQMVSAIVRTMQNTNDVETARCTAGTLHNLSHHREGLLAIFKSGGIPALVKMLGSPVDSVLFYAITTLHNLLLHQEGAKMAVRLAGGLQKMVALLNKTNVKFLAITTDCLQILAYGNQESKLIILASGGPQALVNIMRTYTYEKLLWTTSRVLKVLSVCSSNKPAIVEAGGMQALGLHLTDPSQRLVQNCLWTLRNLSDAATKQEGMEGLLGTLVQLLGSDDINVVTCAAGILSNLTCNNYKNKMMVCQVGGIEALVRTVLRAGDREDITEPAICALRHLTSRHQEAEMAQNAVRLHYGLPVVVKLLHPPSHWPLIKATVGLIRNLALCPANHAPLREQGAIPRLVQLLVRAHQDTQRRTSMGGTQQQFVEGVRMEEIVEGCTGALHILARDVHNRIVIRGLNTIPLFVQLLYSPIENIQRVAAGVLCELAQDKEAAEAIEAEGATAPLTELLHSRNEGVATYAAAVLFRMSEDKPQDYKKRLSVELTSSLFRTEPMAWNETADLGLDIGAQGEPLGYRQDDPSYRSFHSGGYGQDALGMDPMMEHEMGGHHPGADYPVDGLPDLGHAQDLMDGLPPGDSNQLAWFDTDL
Put plainly: Nano-BRET target engagement assay (B-cat-Halo & TCF4-Luc in HEK293 cells). It is filed as cell-based. The conditions noted are these: absolute IC50; read-out: NanoBRET Abs IC50. On the technique in general: Bioluminescence resonance energy transfer reports proximity on the nanometre scale.

The target in assay [2] is T2, full-length beta-Catenin (Uniprot ID P35222) (Homo sapiens, UniProt P35222).
T2 construct: 10 nM full-length beta-Catenin (Uniprot ID P35222)
T2 sequence (P35222 1-781): T1 sequence (P35222 1-781)
Put plainly: Fluorescence polarization IC50 (beta-catenin / 5FAM-TCF4 10-53 competition). The assay is classed as binding. The conditions noted are these: fluorescence polarization; read-out: beta-Catenin FP IC50. (In fluorescence polarisation assays a small probe gives low polarisation when free and higher when bound to something large.)

Molecules are shown by their SMILES. Some results are limits rather than exact numbers.

For `CC(=O)N1CCC[C@]12CCCCCCC1(CCCCCCCCCCC[C@@](C)(C(=O)N[C@@H](Cc3ccsc3)C(=O)N[C@@H](Cc3csc4ccccc34)C(=O)N[C@@H](CCC(N)=O)C(N)=O)NC(=O)[C@H](CC(C)C)NC(=O)[C@H](Cc3ccccc3)NC(=O)[C@H](C)NC(=O)[C@H](C)NC(=O)[C@H](CN(CC(=O)O)CC(F)(F)F)NC(=O)[C@H](CC(=O)O)NC1=O)NC(=O)[C@H](CC(C)(C)C)NC(=O)[C@H](CC(=O)O)NC2=O` (stereo partly drawn) [I-1698, Ac-PL3-Asp-Npg-B5-Asp-TfeGA-Ala-Ala-Phe-Leu-S8-3Thi-BztA-Gln-NH2], the IC50 in assay [1] is above 20000 nM; in assay [2] it was 165 nM.

Consider `CC(=O)N1CCC[C@]12CC=CCCCC1(CCCC=CCCCOC(=O)N3CC[C@@](C(=O)N[C@@H](Cc4ccccc4)C(=O)N[C@@H](Cc4csc5ccccc45)C(=O)N[C@@H](CCC(N)=O)C(N)=O)(C3)NC(=O)[C@H](CC(C)C)NC(=O)[C@H](Cc3ccccc3)NC(=O)[C@H](C)NC(=O)[C@H](C)NC(=O)[C@H](CN(CC(=O)O)CC(F)(F)F)NC(=O)[C@H](CC(=O)O)NC1=O)NC(=O)[C@H](CC(C)(C)C)NC(=O)[C@H](CC(=O)O)NC2=O` (stereo partly drawn) [I-1700, Ac-PL3-Asp-Npg-B5-Asp-TfeGA-Ala-Ala-Phe-Leu-PyrS2-Phe-BztA-Gln-NH2], for which the IC50 in assay [1] is 4800 nM; in assay [2] it was 16 nM.

Turning to `CC(=O)N1CCC[C@]12CC=CCCCC1(CCCC=CCCCOC(=O)N3CC[C@@](C(=O)N[C@@H](Cc4cccnc4)C(=O)N[C@@H](Cc4csc5ccccc45)C(=O)N[C@@H](CCC(N)=O)C(N)=O)(C3)NC(=O)[C@H](CC(C)C)NC(=O)[C@H](Cc3ccccc3)NC(=O)[C@H](C)NC(=O)[C@H](C)NC(=O)[C@H](CN(CC(=O)O)CC(F)(F)F)NC(=O)[C@H](CC(=O)O)NC1=O)NC(=O)[C@H](CC(C)(C)C)NC(=O)[C@H](CC(=O)O)NC2=O` (stereo partly drawn) [I-1701, Ac-PL3-Asp-Npg-B5-Asp-TfeGA-Ala-Ala-Phe-Leu-PyrS2-3PyrA-BztA-Gln-NH2], the IC50 was found to be 24800 nM in assay [1] and 25 nM in assay [2].

Turning to `CC(=O)N1CCC[C@]12CC=CCCCC1(CCCC=CCCCOC(=O)N3CC[C@@](C(=O)N[C@@H](Cc4ccccc4C#N)C(=O)N[C@@H](Cc4csc5ccccc45)C(=O)N[C@@H](CCC(N)=O)C(N)=O)(C3)NC(=O)[C@H](CC(C)C)NC(=O)[C@H](Cc3ccccc3)NC(=O)[C@H](C)NC(=O)[C@H](C)NC(=O)[C@H](CN(CC(=O)O)CC(F)(F)F)NC(=O)[C@H](CC(=O)O)NC1=O)NC(=O)[C@H](CC(C)(C)C)NC(=O)[C@H](CC(=O)O)NC2=O` (stereo partly drawn) [I-1702, Ac-PL3-Asp-Npg-B5-Asp-TfeGA-Ala-Ala-Phe-Leu-PyrS2-2CNF-BztA-Gln-NH2], the IC50 in assay [1] worked out at 6900 nM; in assay [2] it was 17 nM.

For `CC(=O)N1CCC[C@]12CC=CCCCC1(CCCC=CCCCOC(=O)N3CC[C@@](C(=O)N[C@@H](Cc4ccccc4C(F)(F)F)C(=O)N[C@@H](Cc4csc5ccccc45)C(=O)N[C@@H](CCC(N)=O)C(N)=O)(C3)NC(=O)[C@H](CC(C)C)NC(=O)[C@H](Cc3ccccc3)NC(=O)[C@H](C)NC(=O)[C@H](C)NC(=O)[C@H](CN(CC(=O)O)CC(F)(F)F)NC(=O)[C@H](CC(=O)O)NC1=O)NC(=O)[C@H](CC(C)(C)C)NC(=O)[C@H](CC(=O)O)NC2=O` (stereo partly drawn) [I-1704, Ac-PL3-Asp-Npg-B5-Asp-TfeGA-Ala-Ala-Phe-Leu-PyrS2-2F3MeF-BztA-Gln-NH2], the IC50 in assay [1] was found to be 5300 nM; in assay [2] it was 37 nM.

In the case of `CC(=O)N1CCC[C@]12CC=CCCCC1(CCCC=CCCCOC(=O)N3CC[C@@](C(=O)N[C@@H](Cc4ccsc4)C(=O)N[C@@H](Cc4csc5ccccc45)C(=O)N[C@@H](CC(N)=O)C(N)=O)(C3)NC(=O)[C@H](CC(C)C)NC(=O)[C@H](Cc3ccccc3)NC(=O)[C@H](C)NC(=O)[C@H](C)NC(=O)[C@H](CN(CC(=O)O)CC(F)(F)F)NC(=O)[C@H](CC(=O)O)NC1=O)NC(=O)[C@H](CC(C)(C)C)NC(=O)[C@H](CC(=O)O)NC2=O` (stereo partly drawn) [I-1705, Ac-PL3-Asp-Npg-B5-Asp-TfeGA-Ala-Ala-Phe-Leu-PyrS2-3Thi-BztA-Asn-NH2], the IC50 was 2900 nM in assay [1] and 9 nM in assay [2].

Regarding `CC(=O)N1CCC[C@]12CC=CCCCC1(CCCC=CCCCOC(=O)N3CC[C@@](C(=O)N[C@@H](Cc4ccsc4)C(=O)N[C@@H](Cc4csc5ccccc45)C(=O)N[C@@H](Cc4ccccc4C(N)=O)C(N)=O)(C3)NC(=O)[C@H](CC(C)C)NC(=O)[C@H](Cc3ccccc3)NC(=O)[C@H](C)NC(=O)[C@H](C)NC(=O)[C@H](CN(CC(=O)O)CC(F)(F)F)NC(=O)[C@H](CC(=O)O)NC1=O)NC(=O)[C@H](CC(C)(C)C)NC(=O)[C@H](CC(=O)O)NC2=O` (stereo partly drawn) [I-1707, Ac-PL3-Asp-Npg-B5-Asp-TfeGA-Ala-Ala-Phe-Leu-PyrS2-3Thi-BztA-2cbmf-NH2], the IC50 in assay [1] is 6100 nM; in assay [2], 19 nM.

In the case of `CC(=O)N1CCC[C@]12CC=CCCCC1(CCCC=CCCCOC(=O)N3CC[C@@](C(=O)N[C@@H](Cc4ccsc4)C(=O)N[C@@H](Cc4csc5ccccc45)C(=O)N[C@@H](Cc4cccc(C(N)=O)c4)C(N)=O)(C3)NC(=O)[C@H](CC(C)C)NC(=O)[C@H](Cc3ccccc3)NC(=O)[C@H](C)NC(=O)[C@H](C)NC(=O)[C@H](CN(CC(=O)O)CC(F)(F)F)NC(=O)[C@H](CC(=O)O)NC1=O)NC(=O)[C@H](CC(C)(C)C)NC(=O)[C@H](CC(=O)O)NC2=O` (stereo partly drawn) [I-1708, Ac-PL3-Asp-Npg-B5-Asp-TfeGA-Ala-Ala-Phe-Leu-PyrS2-3Thi-BztA-3cbmf-NH2], the IC50 in assay [1] came out at 11900 nM; in assay [2], 29 nM.

In the case of `CC(=O)N1CCC[C@]12CCCCCCC1(CCCCCCCCOC(=O)N3CC[C@@](C(=O)N[C@@H](Cc4ccccc4)C(=O)N[C@@H](Cc4csc5ccccc45)C(=O)N[C@@H](CCC(N)=O)C(N)=O)(C3)NC(=O)[C@H](CC(C)C)NC(=O)[C@H](Cc3ccccc3)NC(=O)[C@H](C)NC(=O)[C@H](C)NC(=O)[C@H](CN(CC(=O)O)CC(F)(F)F)NC(=O)[C@H](CC(=O)O)NC1=O)NC(=O)[C@H](CC(C)(C)C)NC(=O)[C@H](CC(=O)O)NC2=O` (stereo partly drawn) [I-1711, Ac-PL3-Asp-Npg-B5-Asp-TfeGA-Ala-Ala-Phe-Leu-PyrS2-Phe-BztA-Gln-NH2], the IC50 worked out at 33300 nM in assay [1] and 232 nM in assay [2].

As to `CC(=O)N1CCC[C@]12CCCCCCC1(CCCCCCCCOC(=O)N3CC[C@@](C(=O)N[C@@H](CC4CCCC4)C(=O)N[C@@H](Cc4csc5ccccc45)C(=O)N[C@@H](CCC(N)=O)C(N)=O)(C3)NC(=O)[C@H](CC(C)C)NC(=O)[C@H](Cc3ccccc3)NC(=O)[C@H](C)NC(=O)[C@H](C)NC(=O)[C@H](CN(CC(=O)O)CC(F)(F)F)NC(=O)[C@H](CC(=O)O)NC1=O)NC(=O)[C@H](CC(C)(C)C)NC(=O)[C@H](CC(=O)O)NC2=O` (stereo partly drawn) [I-1713, Ac-PL3-Asp-Npg-B5-Asp-TfeGA-Ala-Ala-Phe-Leu-PyrS2-CypA-BztA-Gln-NH2], the results for the IC50 in assay [1] and in assay [2] were above 20000 nM and 498 nM, respectively.

Take `CC(=O)N1CCC[C@]12CCCCCCC1(CCCCCCCCOC(=O)N3CC[C@@](C(=O)N[C@@H](Cc4ccccc4C(F)(F)F)C(=O)N[C@@H](Cc4csc5ccccc45)C(=O)N[C@@H](CCC(N)=O)C(N)=O)(C3)NC(=O)[C@H](CC(C)C)NC(=O)[C@H](Cc3ccccc3)NC(=O)[C@H](C)NC(=O)[C@H](C)NC(=O)[C@H](CN(CC(=O)O)CC(F)(F)F)NC(=O)[C@H](CC(=O)O)NC1=O)NC(=O)[C@H](CC(C)(C)C)NC(=O)[C@H](CC(=O)O)NC2=O` (stereo partly drawn) [I-1714, Ac-PL3-Asp-Npg-B5-Asp-TfeGA-Ala-Ala-Phe-Leu-PyrS2-2F3MeF-BztA-Gln-NH2]: the IC50 in assay [1] turned out to be 28600 nM; in assay [2] it was 372 nM.

Take `CC(=O)N1CCC[C@]12CC=CCCCC1(CCCC=CCCCOC(=O)N3CC[C@@](C(=O)N[C@@H](Cc4ccccc4Cl)C(=O)N[C@@H](Cc4csc5ccccc45)C(=O)N[C@@H](CCC(N)=O)C(N)=O)(C3)NC(=O)[C@H](CC(N)=O)NC(=O)[C@H](Cc3ccccc3)NC(=O)[C@H](C)NC(=O)[C@H](C)NC(=O)[C@H](CC(=O)O)NC(=O)[C@H](CC(=O)O)NC1=O)NC(=O)[C@H](CC(C)(C)C)NC(=O)[C@H](CC(=O)S)NC2=O` (stereo partly drawn) [I-1721, Ac-PL3-AspSH-Npg-B5-Asp-Asp-Ala-Ala-Phe-Asn-PyrS2-2C1F-BztA-Gln-NH2]: the IC50 in assay [1] is above 20000 nM; in assay [2] it was 139 nM.

Turning to `CC(=O)N1CCC[C@]12CC=CCCCC1(CCCC=CCCCOC(=O)N3CC[C@@](C(=O)N[C@@H](Cc4ccccc4Cl)C(=O)N[C@@H](Cc4csc5ccccc45)C(=O)N[C@@H](CCC(N)=O)C(N)=O)(C3)NC(=O)[C@H](CC(N)=O)NC(=O)[C@H](Cc3ccccc3)NC(=O)[C@H](C)NC(=O)[C@H](C)NC(=O)[C@H](CC(=O)O)NC(=O)[C@H](CC(=O)O)NC1=O)NC(=O)[C@H](CC(C)(C)C)NC(=O)[C@H](CC(=O)S)NC2=O` (stereo partly drawn) [I-1722, Ac-PL3-AspSH-Npg-B5-Asp-Asp-Ala-Ala-Phe-Asn-PyrS2-2C1F-BztA-Gln-NH2], the IC50 in assay [1] is above 20000 nM; in assay [2] it was 135 nM.

By IC50 is commonly meant the point on the concentration scale where inhibition reaches its midpoint.
